Source: ChEMBL document CHEMBL1149622, “Synthesis, resolution, stereochemistry, and molecular modeling of (R)- and (S)-2-acetyl-1-(4'-chlorophenyl)-6,7-dimethoxy-1,2,3,4-tetrahydroisoquinoline AMPAR antagonists” (2007)

Key:
Mus musculus [1] = organism: Mus musculus; assay: Anticonvulsant activity against audiogenic clonus seizures in DBA/2 mouse after 30 mins; format: functional; conditions: DBA/2, 0.5 h
Mus musculus [2] = organism: Mus musculus; assay: Anticonvulsant activity against audiogenic tonus seizures in DBA/2 mouse after 30 mins; format: functional; conditions: DBA/2, 0.5 h

`COc1cc2c(cc1OC)C(c1ccc(Cl)cc1)N(C(C)=O)CC2` (racemic) gave an ED50 (Mus musculus [1]) of 6.51 µmol/kg and an ED50 (Mus musculus [2]) of 3.53 µmol/kg.
`COc1cc2c(cc1OC)[C@@H](c1ccc(Cl)cc1)N(C(C)=O)CC2` showed an ED50 (Mus musculus [1]) of 4.1 µmol/kg and an ED50 (Mus musculus [2]) of 2.05 µmol/kg.
With `COc1cc2c(cc1OC)[C@H](c1ccc(Cl)cc1)N(C(C)=O)CC2` the ED50 (Mus musculus [1]) was 22.4 µmol/kg and the ED50 (Mus musculus [2]) was 11.2 µmol/kg.
